Test results reported in PMC8618187 (Nanomaterials, 2021).
Where two headings read alike, the source gives them in different places.

Experiments:
HCT-116 cells [1] = assay: Cellular uptake of curcumin by fluorescence microscopy; type: cell-based, human; settings: curcumin loaded into PT-R-Ms micelles, HCT-116, 0, 6, 12 h
Method: To analyze the internalization of curcumin (a P-gP inhibitor) into tumor cells, HCT-116 tumor cells were used. Curcumin as a fluorescent probe was encapsulated within the core of PT-R-Ms micelles following a similar procedure to that mentioned earlier for PTX loaded micelles. The HCT-116 cells were seeded into 6 well plates at a density of 1 × 10^6 cells/well. After 24 h the cells became confluent and were incubated with curcumin-loaded PT-R-Ms for different time periods (0, 6, 12 h). Upon incubation, the medium was removed and the cells were washed with cold PBS. Subsequently, the uptake of curcumin was monitored by fluorescence microscopy (Evos® FL Cell Imaging System, Thermo Fisher Scientific, Waltham, MA, USA). Ex vivo assays based on the tumor tissue slice model were used to analyze the curcumin uptake by inhibition of P-gP efflux pump overexpressed on tumor cells, as reported earlier. Different slides of tumor tissue were prepared and stained with curcumin-loaded PT-R-Ms. Similarly, HCT-116 tumor tissue cells were incubated for different time intervals to monitor the uptake of curcumin.

in vitro = settings: rat, pH 6.5
Method: Briefly, the study was conducted on the intestine of healthy rats weighing between 250–300 g. The rats were sacrificed and the abdomen was opened with a middle incision. The intestine was immediately removed, thoroughly washed with Krebs ringer solution (pH 6.5), and cut into pieces of 4–5 cm. The intestine was everted by carefully passing a narrow glass rod from one end of the intestine and then gently rolling it on a glass rod. All the pieces were stored in an oxygenated Krebs ringer solution at 4 °C until further use. […] Each segment was tied at one end with a silk suture, and 1 mL of sample (1 mg/mL) was carefully filled in the sac using a hypodermic syringe and the other end was tied with a silk suture. […] All filled sacs were immersed in tubes filled with 10 mL of oxygenated Krebs solution and incubated at 37 °C under gentle mechanical shaking. The samples were collected at predefined times from the surrounding medium and replaced with the same amount of fresh solution. […] The apparent permeability was calculated using the following equation:Apparent permeability (µg/cm^2) = (concentration × volume)/mucosal surface area
The mucosal surface area was calculated assuming that the intestine is a cylinder by using the formula:Mucosal surface area (cm^2) = circumference (π × diameter) × length

rats [2] = assay: Acute oral toxicity (OECD 425), serum biochemistry, histopathology; settings: single oral dose of 20 mg of PTX/kg, after 14 days
Method: (§1) Healthy, female rats weighing 150 g and aged 10–14 weeks were taken from the animal house. Rats were divided into 4 groups (n = 4) and kept under a standard condition of food and water in the controlled environment. […] The dose (20 mg/kg) was administered orally through oral gavage. […] After 14 days, the rats were sacrificed for blood and serum biochemistry and tissue histology studies [29].
(§2) The blood from each rat was drawn through cardiac puncture into BD vacutainer blood collection tubes. […] The clear supernatant was carefully removed and stored at −20 °C. Liver function tests (LFTs) including alkaline phosphatase (ALP), serum glutamic-pyruvic transaminase (SGPT), serum glutamic-oxaloacetic transaminase (SGOT) and bilirubin, renal functions tests (RFTs) including urea and creatinine, serum electrolytes (Na, Mg, Ca, and P), glucose and total protein were analyzed using the serum.
(§3) Changes in the organs weight were measured to evaluate the toxicity of tested formulations. The vital organs (heart, kidneys, liver, and spleen) were removed from the rats after being sacrificed, washed with normal saline, and then weighed individually. The weights of organs from treated groups were compared with a control group and body mass index was calculated using the following formula [30]: organ−body weight index (%)=organ weight/body weight×100%
(§4) Vital organs (liver, kidney, heart, and spleen) were examined for toxicity and to notice any pathological changes [31]. The organs were stored in 10% formalin solution. A paraffin section (0.5 µm) was cut into the same size as the organ via a rotary microtome and was properly fixed. Tissue sections were then fixed onto glass slides followed by staining with hematoxylin and eosin periodic acid Schiff (PAS). The sections were examined under a microscope for any toxic effect produced by the redox and non-redox micelles.

[3] = Oral pharmacokinetics of PTX; type: in vivo, rats
Text: Healthy female rats weighing 120–150 g were selected and fasted overnight with free access to water and were randomly distributed into four groups and each group had four rats (n = 4).

rats [4] = settings: rat, in vivo, po, 20 mg/kg
Method: as §1, §2, §3, §4

HCT-116 cells [5] = assay: Cell apoptosis by flow cytometry (Annexin V FITC/PI); type: cell-based, human; parameters: dose or concentration left out as unconfirmed; settings: HCT-116, 48 h
Text: After treatment, the cells were harvested and washed twice with cold PBS.

[6] = In vivo biodistribution (fluorescence of excised organs and tumors); parameters: species or system rats; settings: oral
Method: The fluorotagged PT-R-Ms were given orally to rats by oral gavage. After 48 h, rats were sacrificed and their major organs were excised to investigate the formulation distribution within them. The fluorescence intensity of the excised organs (heart, liver, spleen, and kidney) was examined using the iBox Explorer2 (iBox® Explorer2 Imaging Microscope; UVP Ltd. The system was set on a 535/45 nm excitation filter and a 605/50 nm emission filter with the automated BioLite™ MultiSpectral Light Source. Images were taken at 0.17× magnification, and the intensity was kept at 6 using the 3.2 MP OptiChemi 610 camera (Vision Works® LS Acquisition, AnlyticJena, Jena, Germany). An analysis software was used to study the images.

human macrophages = assay: Biocompatibility against human macrophages (MTT); type: cell-based; settings: high concentrations
Method: Biocompatibility studies of pure PTX, Ms, RMs, PR-Ms, and PT-R-Ms were performed against human macrophages. Ficoll-percoll gradient technique was used to isolate human macrophages. Ficoll solution was prepared by dissolving 5.6 g of ficoll in 9.5 mL deionized water and 5 mL gastrografin to achieve a density of 1.070 g/mL. The fresh human blood (10 cm^3) was diluted three times with Hanks buffer salt solution (HBSS), layered onto a percoll gradient and then centrifuged at 400× g for 5 min to isolate the macrophage layer. The separated cells were suspended in RPMI medium (10% FBS, 100 U/mL penicillin, 0.1 mg/mL streptomycin, and 25 mM HEPES) and incubated at 5% CO2. […] Normal cells were taken as negative controls, while cells treated with 1% Triton X were used as positive controls to investigate the viability.

[7] = In vitro PTX release with kinetic modelling (with/without GSH); type: physicochemical; settings: without GSH
Method: Glutathione (GSH)-triggered release was investigated in vitro from Ms, R-Ms, PR-Ms, and PT-R-Ms formulations (without GSH) and from PT-R-Ms in the presence of 20 mM GSH.
Redox responsive multifunctional micelles remained indolent in the physiological environment and became activated when they reached a reductive environment, which is another approach for targeted site-specific delivery. As a proof-of-concept, glutathione (GSH)-triggered release (to mimic the redox tumor microenvironment) was investigated in vitro from Ms, R-Ms, PR-Ms, and PT-R-Ms formulations (without GSH) and from PT-R-Ms in the presence of 20 mM GSH. The controlled burst release was confirmed by applying kinetic models of drug release (zero-order, Higuchi, Korsmeyer–Peppas, and Hixon Crowell) to the different formulations, and the results are gathered in Table 2. The Korsmeyer–Peppas model was proven to be suitable to explain the release kinetics from the PT-R-Ms, which is a prerequisite for polymeric systems.

[8] = female, rat, plasma, oral gavage, 20 mg/kg

Structure (SMILES): COc1cc(/C=C/C(=O)CC(=O)/C=C/c2ccc(O)c(OC)c2)ccc1O [curcumin]
- time of maximum curcumin uptake (HCT-116 cells [1]): 12 h

Structure (SMILES): CC(=O)O[C@H]1C(=O)[C@@]2(C)[C@H]([C@H](OC(=O)c3ccccc3)[C@]3(O)C[C@H](OC(=O)[C@H](O)[C@@H](NC(=O)c4ccccc4)c4ccccc4)C(C)=C1C3(C)C)[C@]1(OC(C)=O)CO[C@@H]1C[C@@H]2O [PTX, paclitaxel]
- Papp A→B at 1 mg/mL (in vitro): 0.43 ± 0.2 ×10⁻⁶ cm/s
- Papp B→A at 1 mg/mL (in vitro): 2.35 ± 0.2 ×10⁻⁶ cm/s
- Mortality, tissue damage, or bodyweight change (rats [2]): not observed
- time above the minimum effective concentration / within the therapeutic window ([3]; MEC 35 ng/mL, oral): 2 h
- bioavailability ([3]; female, rat, plasma, po, 20 mg/kg): 7.5%
- Cmax [3, 8]: 70.69 ± 0.14 ng/mL
- half-life [3, 8]: 32.9 ± 2.2 h
- AUC(0-t) ([3]; female, rat, plasma, oral gavage, 20 mg/kg, read-out: AUC 0-96): 4271 ± 8.4 ng·h/mL
- MRT last ([3]; female, rat, plasma, oral gavage, 20 mg/kg, read-out: MRT 0-96): 54.9 ± 2.7 h
- Tmax ([3]; female, rat, plasma, oral gavage, 20 mg/kg, read-out: Tmax): 4 ± 0.2 h
- Tmax ([3]; oral gavage, 20 mg/kg): 2 h
- histopathological changes in the liver tissue (rats [4]): cytoplasmic degeneration, necrosis, hemorrhage, and infiltration of inflammatory cells
- histopathology of heart tissue (rats [4]): lesions, myocarditis, and infiltration of inflammatory cells
- histopathology of kidney tissue (rats [4]): distorted glomeruli, dilated tubules, edema exudate, mild necrosis, and infiltration of inflammatory cells
- histopathology of spleen tissue (rats [4]): distorted lymphoid architecture
- percentage of apoptotic cells (HCT-116 cells [5]): 28.57 ± 0.06%
- biodistribution: liver [6]: significantly higher uptake in the liver
- toxicity against human macrophages (human macrophages): cytotoxic
- Higuchi Model K0 [7]: 40.117
- Hixon Crowell Model K0 [7]: 0.190
- Korsmeyer–Peppas Model N [7]: 0.701
- Zero Order K0 [7]: 21.01
